Measured values published in US20140315850A1, “2',3'-Dideoxy-2'-alpha-Fluoro-2'-beta-C-Methylnucleosides and Prodrugs Thereof” (Nanjing Molecular Research, Inc., priority 2011, published 2014).

How the values were obtained:
[1] = system: HCV subgenomic genotype 1b replicon; assay: cell-based HCV replicon assay (luciferase reporter); parameters: species or system hepatitis C virus (HCV); conditions: for EC50: Hepatitis C virus, Huh-7 cells, genotype 1b replicon luc-ubi-neo, 48 h incubation, luciferase activity, read-out: EC50 (concentration of drug inhibiting HCV by 50%); for anti-HCV activity (in words): replicon assay, genotype 1b
Experimental: (§1) The anti-HCV activity and cytotoxicity of compounds disclosed herein were evaluated following patent method (WO/2007/027248).
(§2) The anti-HCV activity and toxicity of the exemplary compounds can be tested in two biological assays—a cell-based HCV replicon assay and cytotoxicity assay (WO 2007/027248).
A human hepatoma cell line (Huh-7) containing replicating HCV subgenomic genotype 1b replicon with a luciferase reporter gene (luc-ubi-neo) was used to evaluate anti-HCV activity of the compounds. In this assay, the level of luciferase signal correlates with the viral RNA replication directly. The HCV replicon-reporter cell line (NK/luc-ubi-neo) was cultured in DMEM medium supplemented with 10% fetal bovine serum and 0.5 mg/ml Geneticin (G418). Cells were maintained in a subconfluent state to ensure high levels of HCV replicon RNA synthesis.
To evaluate the antiviral activity of compounds, serial dilutions were prepared with concentrations ranging from 0.14 to 300 μM. Diluted compounds were transferred to a 96-well plate followed by the addition of replicon cells (6000 cells per well). Cells were incubated with the compounds for 48 h after which luciferase activity was measured. Reduction of luciferase signal reflected the decrease of HCV replicon RNA in the treated cells and used to determine the EC50 value (concentration which yielded a 50% reduction in luciferase activity).

[2] = Cytotoxicity assay (LTR-luc luciferase reporter); type: cell-based, human; conditions: human; Huh-7 LTR-luc cells, luciferase activity; read-out: CC50 (concentration of drug inhibiting cellular growth by 50%)
Experimental: as §1, §2
(§3) II. Cytotoxicity Assay A Huh-7 cell line carrying a luciferase reporter gene (driven by a HIV LTR promoter) stably integrated into the chromosome was used to analyze the cytotoxic effect of the selected compounds. This cell line (LTR-luc) was maintained in DMEM medium with 10% FBS. Design of the cytotoxicity assay was similar to that of the HCV replicon assay. Reduction of luciferase activity in the treated cells correlated with the cytotoxic effect of the test compound and was used to calculate the CC50 value (concentration that inhibited cell growth by 50%).

[3] = system: Huh-7 cell line (LTR-luc); assay: Cytotoxicity assay (LTR-luc luciferase reporter); type: cell-based, human; conditions: in vitro
Experimental: as §1, §2, §3

Structure (SMILES)	EC50 [1] [µM]	CC50 [2] [µM]	anti-HCV activity (in words) [1]	cytotoxicity (in words) [3]
COc1nc(N)nc2c1ncn2C1OC(CO)C[C@@]1(C)F (some centres unmarked) [Compound 11]	> 100	> 100	–	–
COc1nc(N)nc2c1ncn2C1OC(CO[P@@](=O)(N[C@@H](C)C(=O)OC2CCCC2)Oc2ccccc2)C[C@@]1(C)F (some centres unmarked) [Compound 25]	0.58	> 100	potent anti-HCV activity	without significant cytotoxicity
COC(=O)[C@H](C)NP(=O)(OCC1C[C@@](C)(F)C(n2cnc3c(OC)nc(N)nc32)O1)Oc1ccccc1 (some centres unmarked) [Compound 18]	< 1	> 100	potent anti-HCV activity	without significant cytotoxicity
COc1nc(N)nc2c1ncn2C1OC(COP(=O)(NCc2ccccc2)OCc2ccccc2C)C[C@@]1(C)F (some centres unmarked) [Compound 17]	< 1	52.2	potent anti-HCV activity	without significant cytotoxicity
